Reference: PubChem BioAssay AID2060624 (Molecular Pharmacology Branch, DTP, NCI, 2025)

Tested on: 217524-143-R1-J4-PDC spheroids with HUVEC/MSC, viability
Experiment: Anticancer human tumor 217524-143-R1-J4-PDC patient-derived pancreatic carcinoma cell line growth inhibition [CLK]
Settings: for IC50: curve of first compound; for viability, T/C: stronger effect = lower value
Outline: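 Multi-cell-type spheroids combined patient-derived tumor cells with HUVEC endothelial cells and human mesenchymal stem cells. Paired agents were dosed in half-log steps down from about clinical Cmax, or from 10 microM where Cmax was unknown.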

[1] = second compound 0.0316 µM, first compound 0.0316 µM
[2] = second compound 0.0316 µM, first compound 0.1 µM
[3] = second compound 0.0316 µM, first compound 0.316 µM
[4] = second compound 0.0316 µM, first compound 1 µM
[5] = second compound 0.1 µM, first compound 0.0316 µM
[6] = second compound 0.1 µM, first compound 0.1 µM
[7] = second compound 0.1 µM, first compound 0.316 µM
[8] = second compound 0.1 µM, first compound 1 µM
[9] = second compound 0.316 µM, first compound 0.0316 µM
[10] = second compound 0.316 µM, first compound 0.1 µM
[11] = second compound 0.316 µM, first compound 0.316 µM
[12] = second compound 0.316 µM, first compound 1 µM
[13] = second compound 1 µM, first compound 0.0316 µM
[14] = second compound 1 µM, first compound 0.1 µM
[15] = second compound 1 µM, first compound 0.316 µM
[16] = second compound 1 µM, first compound 1 µM
[17] = second compound 3.16 µM, first compound 0.0316 µM
[18] = second compound 3.16 µM, first compound 0.1 µM
[19] = second compound 3.16 µM, first compound 0.316 µM
[20] = second compound 3.16 µM, first compound 1 µM
[21] = second compound 10 µM, first compound 0.0316 µM
[22] = second compound 10 µM, first compound 0.1 µM
[23] = second compound 10 µM, first compound 0.316 µM
[24] = second compound 10 µM, first compound 1 µM
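Also: spheroids exposed to agents for seven days before reading.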
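For viability, T/C in this document: 100% = DMSO vehicle control viability.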

`CC(=O)O[C@H]1C(=O)[C@@]2(C)[C@H]([C@H](OC(=O)c3ccccc3)[C@]3(O)C[C@H](OC(=O)[C@H](O)[C@@H](NC(=O)c4ccccc4)c4ccccc4)C(C)=C1C3(C)C)[C@]1(OC(C)=O)CO[C@@H]1C[C@@H]2O` + CNC(=O)c1ccc(Nc2nc(OC3CCCC3)c3c(-c4ccc5nc(C)oc5c4)c[nH]c3n2)c(OC)c1 was tested, and the IC50 (second compound 0.0316 µM) was less than 31.6 nM, the IC50 (second compound 0.1 µM) was less than 31.6 nM and the IC50 (second compound 0.316 µM) was less than 31.6 nM. For the same compound, the IC50 (second compound 1 µM) was less than 31.6 nM, the IC50 (second compound 3.16 µM) was less than 31.6 nM and the IC50 (second compound 10 µM) was less than 31.6 nM. The viability, T/C [1] was 19.7%, the viability, T/C [2] was 14.3% and the viability, T/C [3] was 16.9%. For the same compound, the viability, T/C [4] was 16.6%, the viability, T/C (second compound 0.0316 µM, first compound 3.16 µM) was 25.4% and the viability, T/C (second compound 0.0316 µM, first compound 10 µM) was 30.8%. It also gave a viability, T/C [5] of 31.3%, a viability, T/C [6] of 26.3% and a viability, T/C [7] of 31.9%. For the same compound, the viability, T/C [8] was 28%, the viability, T/C (second compound 0.1 µM, first compound 3.16 µM) was 33.3% and the viability, T/C (second compound 0.1 µM, first compound 10 µM) was 43.4%. For the same compound, the viability, T/C [9] was 34.9%, the viability, T/C [10] was 30.4% and the viability, T/C [11] was 37%. The viability, T/C [12] was 39.8%, the viability, T/C (second compound 0.316 µM, first compound 3.16 µM) was 34.5% and the viability, T/C (second compound 0.316 µM, first compound 10 µM) was 33%. For the same compound, the viability, T/C [13] was 20.6%, the viability, T/C [14] was 27.6% and the viability, T/C [15] was 33.4%. It also gave a viability, T/C [16] of 39.4%, a viability, T/C (second compound 1 µM, first compound 3.16 µM) of 35.9% and a viability, T/C (second compound 1 µM, first compound 10 µM) of 33%. The viability, T/C [17] was 20.9%, the viability, T/C [18] was 26.1% and the viability, T/C [19] was 31%. It also gave a viability, T/C [20] of 34.8%, a viability, T/C (second compound 3.16 µM, first compound 3.16 µM) of 37.6% and a viability, T/C (second compound 3.16 µM, first compound 10 µM) of 31.2%. The viability, T/C [21] was 19.1%, the viability, T/C [22] was 27.5% and the viability, T/C [23] was 29%. The viability, T/C [24] was 36.2%, the viability, T/C (second compound 10 µM, first compound 3.16 µM) was 40.2% and the viability, T/C (second compound 10 µM, first compound 10 µM) was 32.2%.

Work on `CCc1c2c(nc3ccc(O)cc13)-c1cc3c(c(=O)n1C2)COC(=O)[C@]3(O)CC` + CNC(=O)c1ccc(Nc2nc(OC3CCCC3)c3c(-c4ccc5nc(C)oc5c4)c[nH]c3n2)c(OC)c1 yielded an IC50 (second compound 0.0316 µM) of 3.76 nM, an IC50 (second compound 0.1 µM) of less than 3.16 nM and an IC50 (second compound 0.316 µM) of less than 3.16 nM. For the same compound, the IC50 (second compound 1 µM) was less than 3.16 nM, the IC50 (second compound 3.16 µM) was less than 3.16 nM and the IC50 (second compound 10 µM) was less than 3.16 nM. The viability, T/C (second compound 0.0316 µM, first compound 0.00316 µM) was 53.2%, the viability, T/C (second compound 0.0316 µM, first compound 0.01 µM) was 39.4% and the viability, T/C [1] was 32.2%. The viability, T/C [2] was 24.1%, the viability, T/C [3] was 15.6% and the viability, T/C [4] was 3.04%. It also gave a viability, T/C (second compound 0.1 µM, first compound 0.00316 µM) of 48.7%, a viability, T/C (second compound 0.1 µM, first compound 0.01 µM) of 35.8% and a viability, T/C [5] of 27.9%. The viability, T/C [6] was 24.6%, the viability, T/C [7] was 17.4% and the viability, T/C [8] was 3.12%. For the same compound, the viability, T/C (second compound 0.316 µM, first compound 0.00316 µM) was 39.6%, the viability, T/C (second compound 0.316 µM, first compound 0.01 µM) was 30.1% and the viability, T/C [9] was 25.1%. For the same compound, the viability, T/C [10] was 21.4%, the viability, T/C [11] was 12.9% and the viability, T/C [12] was 3.58%. The viability, T/C (second compound 1 µM, first compound 0.00316 µM) was 24.6%, the viability, T/C (second compound 1 µM, first compound 0.01 µM) was 20.5% and the viability, T/C [13] was 17.6%. It also gave a viability, T/C [14] of 15.6%, a viability, T/C [15] of 9.88% and a viability, T/C [16] of 3.65%. For the same compound, the viability, T/C (second compound 3.16 µM, first compound 0.00316 µM) was 23.6%, the viability, T/C (second compound 3.16 µM, first compound 0.01 µM) was 20.8% and the viability, T/C [17] was 15.6%. It also gave a viability, T/C [18] of 13%, a viability, T/C [19] of 9.01% and a viability, T/C [20] of 2.91%. The viability, T/C (second compound 10 µM, first compound 0.00316 µM) was 23.2%, the viability, T/C (second compound 10 µM, first compound 0.01 µM) was 18.8% and the viability, T/C [21] was 17%. For the same compound, the viability, T/C [22] was 13.4%, the viability, T/C [23] was 10% and the viability, T/C [24] was 3.01%.
